# In patent publication US3980703A, “Extraction of carboxylic acids from dilute aqueous solutions” (The Dow Chemical Company, priority 1975, dated 1976):
# Tests used:
# Assay type in all cases: physicochemical
# [1] = Extraction of acetic acid from 18% aqueous NaCl with polar extractants, distribution coefficient by radiometric counting (Example 1); settings: 1920 ppm acetic acid in 18% aqueous NaCl, equal volumes, 30 min
# Text: (§1) A trace quantity of radioactive carbon-14 labeled acetic acid was included. Portions of this solution were shaken for thirty minutes with equal volumes of extractant solutions having the compositions set out in the following table. The phases were allowed to disengage, separated and their relative acetic acid concentrations determined by radiometric counting in a scintillation counter. The distribution coefficient (ratio of acetic acid concentrations in organic and aqueous phase) for each extraction is also given in the table.
# [2] = Extraction of acetic acid with TOPO solutions, distribution coefficient (Example 2); settings: about 0.025 molar acid
# Text: as §1, with “A solution of 1920 ppm (approximately 0.2 percent) of acetic acid in 18% aqueous NaCl was made up. A” for “A”
# (§2) In the manner of Example 1, about 0.025 molar aqueous solutions of acetic, glycolic and lactic acids were extracted with equal volumes of TOPO (trioctyl phosphine oxide) solutions in kerosene or Chevron 3.
# [3] = Extraction of lactic acid with TOPO solutions, distribution coefficient (Example 2); settings: about 0.025 molar acid
# Text: as §1, with “A solution of 1920 ppm (approximately 0.2 percent) of acetic acid in 18% aqueous NaCl was made up. A” for “A”
# as §2
# [4] = Extraction of glycolic acid with TOPO solutions, distribution coefficient (Example 2); settings: for Distribution Coefficient For: Glycolic: about 0.025 molar acid
# Text: as §1, with “A solution of 1920 ppm (approximately 0.2 percent) of acetic acid in 18% aqueous NaCl was made up. A” for “A”
# as §2
# [5] = Extraction of acetic acid with tetra (n-butyl) urea, distribution coefficient (Example 3); settings: 0.5 M extractant in Chevron 25; 0.2% acetic acid in 18% sodium chloride
# Text: (§3) A 1.9% solution of acrylic acid in water was equilibrated with an equal volume of a 28% solution of tetra-(n-butyl) urea in cyclohexane. […] A similar experiment with 0.2% acetic acid in 18% sodium chloride as the aqueous phase, and 0.5 M tetrabutyl urea in Chevron 25 as the extractant, gave a distribution coefficient of 0.40.
# [6] = Extraction of acrylic acid with tetra (n-butyl) urea, distribution coefficient by titration (Example 3); settings: 28% extractant in cyclohexane; 1.9% acrylic acid in water; equal volumes
# Text: as §3
# [7] = 0.2 M TOPO in kerosene, aqueous phase 1 Molar NaCl
# [8] = 0.5 M TOPO in Chevron 3, aqueous phase 1 Molar NaCl
# [9] = 0.5 M TOPO in Chevron 3, aqueous phase water
smiles,measurement,setting,value
"CCCCCCCCP(=O)(CCCCCCCC)CCCCCCCC [Trioctyl phosphine oxide, trioctyl phosphine oxide]",Distribution coefficient (ratio of acetic acid concentrations in organic and aqueous phase),[1]; 0.5 M extractant in Chevron 25,6.1
same,Distribution Coefficient For: Acetic,[2]; [7],1.46
same,Distribution Coefficient For: Acetic,[2]; [8],3.2
same,Distribution Coefficient For: Acetic,[2]; [9],2.8
same,Distribution Coefficient For: Lactic,[3]; [7],0.40
same,Distribution Coefficient For: Lactic,[3]; [8],1.4
same,Distribution Coefficient For: Lactic,[3]; [9],1.02
same,Distribution Coefficient For: Glycolic,[4]; [7],0.13
same,Distribution Coefficient For: Glycolic,[4]; [8],0.39
same,Distribution Coefficient For: Glycolic,[4]; [9],0.35
O=C(O)CO [glycolic acid],extraction effectiveness of glycolic acid relative to acetic and lactic acids,[4]; TOPO solutions in kerosene or Chevron 3,much less effectively extracted than acetic and lactic acids
CCCCN(CCCC)C(=O)N(CCCC)CCCC [tetra-(n-butyl) urea],distribution coefficient (acetic acid),[5],0.40
same,distribution coefficient for the acrylic acid (organic/aqueous),[6],1.05
CCCC[S+]([O-])CCCC [Di(n-butyl) sulfoxide],Distribution coefficient (ratio of acetic acid concentrations in organic and aqueous phase),[1]; 0.1 M extractant in Chevron 25,0.18
same,Distribution coefficient (ratio of acetic acid concentrations in organic and aqueous phase),[1]; 0.5 M extractant in Chevron 25,1.00
